From ChEMBL document CHEMBL3137667, “[Drug-induced liver injury; fourteenth updated edition of the bibliographic database of liver injuries and related drugs]” (Gastroenterol Clin Biol, 2004)

Tests used:
[1] = human
[2] = human; remark: listed apart in the source
[3] = human; remark: listed apart in the source
[4] = human; remark: listed apart in the source
[5] = human; remark: listed apart in the source
[6] = Highest frequency of moderate liver toxicity observed during clinical trials, expressed as a percentage. [column '% BIOL' in source]; settings: human
[7] = human; remark: listed apart in the source
[8] = Highest frequency of acute liver toxicity observed during clinical trials, expressed as a percentage. [column '% AIGUE' in source]; settings: human
[9] = human; remark: listed apart in the source
[10] = human; remark: listed apart in the source
[11] = human, serum
[12] = human, serum; remark: listed apart in the source
[13] = human, serum, 4383 h
[14] = human; remark: listed apart in the source
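Throughout, for Hepatotoxicity (association with vascular disease): count of indexed literature references reporting vascular liver injury in humans, e.g. peliosis hepatitis, hepatic veno-occlusive disease or Budd-Chiari syndrome.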
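Throughout, for Hepatotoxicity (benign tumour): value is a count of indexed literature references citing a benign tumour confirmed by histopathology.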
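Throughout, for Hepatotoxicity (choleostasis): human cholestatic liver injury, shown by histopathology or by peak ALT or AST elevation over alkaline phosphatase ratio below 2, value counts indexed literature reports.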
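Throughout, for Hepatotoxicity (chronic liver disease): chronic liver injury confirmed by histopathology or persistently raised serum aminotransferase activity beyond 6 months, value given as the count of indexed literature references.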
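Throughout, for Hepatotoxicity (cirrhosis): value is a count of indexed literature references reporting cirrhosis confirmed by histopathology.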
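Throughout, for Hepatotoxicity (cytolytic): human cytolytic liver injury, shown by histopathology or by a ratio above 5 of peak ALT or AST elevation to alkaline phosphatase elevation, value counts indexed references.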
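Throughout, for Hepatotoxicity (granulomatous hepatitis): value is a count of indexed literature references reporting granulomatous liver disease confirmed by histopathology.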
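Throughout, for Hepatotoxicity (malignant tumour): malignant tumour confirmed by histopathology, value gives the count of indexed literature references reporting it.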
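Throughout, for Hepatotoxicity (severe hepatitis): human clinical data: severe hepatitis, meaning potentially life-threatening liver failure or clinically observed cases, the value counts how many indexed literature references report it.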
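Throughout, for Hepatotoxicity (steatosis): steatosis confirmed by histopathology, value is the count of indexed references.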

Row | Structure (SMILES) | Hepatotoxicity (choleostasis) [1] | Hepatotoxicity (cirrhosis) [2] | Hepatotoxicity (malignant tumour) [3] | Hepatotoxicity (association with vascular disease) [4] | Hepatotoxicity (granulomatous hepatitis) [5] | Hepatotoxicity (moderate) [6] | Hepatotoxicity (cytolytic) [7] | Hepatotoxicity (acute) [8] | Hepatotoxicity (steatosis) [9] | Hepatotoxicity (benign tumour) [10] | Hepatotoxicity (moderate) [11] | Hepatotoxicity (acute) [12] | Hepatotoxicity (chronic liver disease) [13] | Hepatotoxicity (severe hepatitis) [14]
1 | CCNC(=O)[C@@H]1CCCN1C(=O)[C@H](CCCNC(=N)N)NC(=O)[C@H](CC(C)C)NC(=O)[C@@H](CC(C)C)NC(=O)[C@H](Cc1ccc(O)cc1)NC(=O)[C@H](CO)NC(=O)[C@H](Cc1c[nH]c2ccccc12)NC(=O)[C@H](Cc1c[nH]cn1)NC(=O)[C@@H]1CCC(=O)N1 [LEUPROLIDE] | 0 | 0 | 0 | 0 | 0 | 2.4% | 0 | 0% | 0 | 0 | 3 | 0 | 0 | 0
2 | Clc1cccc(C(c2ccc3[nH]cnc3c2)n2ccnc2)c1 (stereo not given) [LIAROZOLE] | 0 | 0 | 0 | 0 | 0 | 2.9% | 0 | 0% | 0 | 0 | 1 | 0 | 0 | 0
3 | CC(C)(C)c1ccc(CCC(O)COc2ccc(C(=O)O)cc2)cc1 (stereo not given) [LIFIBROL] | 0 | 0 | 0 | 0 | 0 | 3.9% | 0 | 0% | 0 | 0 | 1 | 0 | 0 | 0
4 | CCC[C@@H]1C[C@@H](C(=O)N[C@@H]([C@H]2O[C@H](SC)[C@H](O)[C@@H](O)[C@H]2O)[C@@H](C)O)N(C)C1 [LINCOMYCIN] | 0 | 0 | 0 | 0 | 0 | 0% | 0 | 0% | 0 | 0 | 2 | 0 | 0 | 0
5 | O=C(O)c1nn(Cc2ccc(Cl)cc2Cl)c2ccccc12 [LONIDAMINE] | 0 | 0 | 0 | 0 | 0 | 6.4% | 0 | 0% | 0 | 0 | 4 | 0 | 0 | 0
6 | Cc1cccc(C)c1OCC(=O)N[C@@H](Cc1ccccc1)[C@@H](O)C[C@H](Cc1ccccc1)NC(=O)[C@H](C(C)C)N1CCCNC1=O [LOPINAVIR] | 0 | 0 | 0 | 0 | 0 | 0% | 2 | 8% | 0 | 0 | 1 | 2 | 0 | 0
7 | CC(C(=O)O)c1ccc(CC2CCCC2=O)cc1 (stereo not given) [LOXOPROFEN] | 0 | 0 | 0 | 0 | 0 | 0% | 0 | 0% | 0 | 0 | 0 | 1 | 0 | 1
8 | C#C[C@]1(O)CC[C@H]2[C@@H]3CCC4=CCCC[C@@H]4[C@H]3CC[C@@]21C [LYNESTRENOL] | 3 | 0 | 0 | 0 | 0 | 0% | 0 | 0% | 0 | 0 | 0 | 3 | 0 | 0
9 | CC(NN)c1ccccc1 (stereo not given) [MEBANAZINE] | 0 | 0 | 0 | 0 | 0 | 9% | 0 | 0% | 0 | 0 | 1 | 0 | 0 | 0
10 | CCC(C)C(C)(COC(N)=O)COC(N)=O (stereo not given) [MEBUTAMATE] | 1 | 0 | 0 | 0 | 0 | 0% | 0 | 0% | 0 | 0 | 0 | 1 | 0 | 0
11 | CO[C@H]1Cc2c(O)cc(O)cc2O[C@@H]1c1ccc(O)c(O)c1 [MECIADANOL] | 0 | 0 | 0 | 0 | 0 | 34.8% | 0 | 0% | 0 | 0 | 1 | 0 | 0 | 0
12 | Cc1ccc(Cl)c(Nc2ccccc2C(=O)O)c1Cl [MECLOFENAMIC ACID] | 0 | 0 | 0 | 0 | 0 | 0% | 0 | 0% | 0 | 0 | 2 | 0 | 0 | 0
13 | Nc1nc(N)nc(Nc2ccc([As]3SCC(CO)S3)cc2)n1 (stereo not given) [MELARSOPROL] | 0 | 0 | 0 | 0 | 0 | 1% | 0 | 0% | 0 | 0 | 3 | 0 | 0 | 0
14 | CC1CCN(CCCC(=O)c2ccc(F)cc2)CC1 [MELPERONE] | 0 | 0 | 0 | 0 | 0 | 12% | 0 | 0% | 0 | 0 | 2 | 0 | 0 | 0
15 | CO[C@@H]1C[C@](C)(O)Cc2cc3c(c(O)c21)C(=O)c1c(O)cc2c(c1C3=O)O[C@@H]1O[C@@]2(C)[C@H](O)[C@@H](N(C)C)[C@@H]1O [MENOGARIL] | 0 | 0 | 0 | 0 | 0 | 16.7% | 0 | 0% | 0 | 0 | 4 | 0 | 0 | 0
